# Legend:
# Type in all cases: in vivo, Wistar rats
# [1] = tested on: benign prostatic hyperplasia (testosterone-induced prostate hypertrophy); test: Prophylactic effect on benign prostatic hyperplasia: change in prostate weight and volume; settings: FINA 0.8 mg/kg orally, BPH-induced rats, prophylactic test
# Description: Male Wistar rats at 8 weeks of age (Samtako, Korea) were acclimated. When the rats weighed about 320 g on average (12 weeks old), they were divided into groups of 5.
# (§1) After removing the testis therefrom, the rats in one of the groups were allowed to revive for about 24 hours. Propionate testosterone was subcutaneously injected at a dose of 7 mg/kg into the castrated group and the normal group to induce prostate hypertrophy for 8 weeks (BPH-induced groups). After induction of prostate hypertrophy for 8 weeks, the rats were treated as follows. Along with testosterone injection, the bay leaf extracts were orally administered at predetermined doses (mg/kg) once a day (seven times a week) for 8 weeks. Separately, Finasteride, which is a commercially available therapeutic agent for benign prostatic hyperplasia, was orally administered to a positive control.
# After completion of the experiment, the rats of all the experimental groups were euthanized. The prostate tissues and main organs were excised therefrom and measured for weight and volume using an electronic scale for animal weights and a caliper (mm^3) (Table 3).
# [2] = Prophylactic test: hepatotoxicity and renal function, serum biochemical index; settings: FINA 0.8 mg/kg orally
# Description: Male Wistar rats at 8 weeks of age (Samtako, Korea) were acclimated. When the rats weighed about 320 g on average (12 weeks old), they were divided into groups of 5. After removing the testis therefrom, the rats in one of the groups were allowed to revive for about 24 hours. Propionate testosterone was subcutaneously injected at a dose of 7 mg/kg into the castrated group and the normal group to induce prostate hypertrophy for 8 weeks (BPH-induced groups). After induction of prostate hypertrophy for 8 weeks, the rats were treated as follows. Along with testosterone injection, the bay leaf extracts were orally administered at predetermined doses (mg/kg) once a day (seven times a week) for 8 weeks. Separately, Finasteride, which is a commercially available therapeutic agent for benign prostatic hyperplasia, was orally administered to a positive control. For use in biochemical index analysis, blood samples were taken from the rats of all the groups through abdominal veins. The blood sample was coagulated for about 30 min and centrifuged at 10,000 rpm for 5 min to separate sera. The sera thus obtained were measured for liver function index (AST and ALT), lipoprotein levels (total cholesterol (T-CHO), HDL cholesterol (HDL-C), LDL cholesterol (LDL-C)), and kidney function index (creatine), using a biochemical analyzer (AU480, Beckman Coulter, USA) (Table 4).
# [3] = tested on: benign prostatic hyperplasia (testosterone-induced prostate hypertrophy); test: Therapeutic efficacy on benign prostatic hyperplasia: change in prostate weight and volume; settings: FINA 0.8 mg/kg orally, BPH-induced rats, therapeutic test
# Description: (§2) Male Wistar rats at 8 weeks of age (Samtako, Korea) were acclimated. When the rats weighed about 380 g on average (19 weeks old), they were divided into groups of 7.
# as §1, with “5” for “7”
# After completion of the experiment, the rats of all the experimental groups were euthanized. The prostate tissues and main organs were excised therefrom and measured for weight and volume using an electronic scale for animal weights and a caliper (mm^3) (Table 1).
# [4] = Therapeutic test: hepatotoxicity and renal function, serum biochemical index; settings: FINA 0.8 mg/kg orally
# Description: as §2
# as §1, with “5” for “7”
# For use in biochemical index analysis, blood samples were taken from the rats of all the groups through abdominal veins. The blood sample was coagulated for about 30 min and centrifuged at 10,000 rpm for 5 min to separate sera. The sera thus obtained were measured for liver function index (AST and ALT), lipoprotein levels (total cholesterol (T-CHO), HDL cholesterol (HDL-C), LDL cholesterol (LDL-C)), and kidney function index (creatine), using a biochemical analyzer (AU480, Beckman Coulter, USA) (Table 2).
smiles,measurement,setting,value
CC(C)(C)NC(=O)[C@H]1CC[C@H]2[C@@H]3CC[C@H]4NC(=O)C=C[C@]4(C)[C@H]3CC[C@]12C [Finasteride],Kidney weight,[1],0.58 g
same,Liver weight,[1],8.09 g
same,Prostate volume,[1],4626.31 mm^3
same,Prostate weight (b),[1],1.43 g
same,Ratio (b/a*100),[1],0.43%
same,Weight (a),[1],328.3 g
same,ALT,[2],51.6 U/L
same,AST,[2],140.4 U/L
same,CRE,[2],0.2 mg/dL
same,HDL,[2],43.3 mg/dL
same,LDL,[2],17.0 mg/dL
same,T-CHO,[2],60.6 mg/dL
same,Kidney weight,[3],0.65 g
same,Liver weight,[3],10.36 g
same,Prostate volume,[3],3459.59 mm^3
same,Prostate weight (b),[3],1.16 g
same,Ratio (b/a*100),[3],0.28%
same,Weight (a),[3],426.6 g
same,ALT,[4],50.3 U/L
same,AST,[4],83.1 U/L
same,CRE,[4],0.3 mg/dL
same,HDL,[4],43.6 mg/dL
same,LDL,[4],14.1 mg/dL
same,T-CHO,[4],70.7 mg/dL
